Values joined by “and” are separate entries in the source; they are usually repeats but may differ in a detail not shown here. Identical values can stand only once.
Tests used:
hCXCR2 = molecular target: T1, hCXCR2 (Homo sapiens, UniProt P25025); assay: CXCR2 SPA Assay ([125I]-IL-8 receptor binding); settings: hCXCR2-CHO overexpressing membranes, [125I]-IL-8 0.1 nM
T1 construct: purchased Biosignal; host or cells: CHO cells (membranes)
T1 sequence (P25025 1-360): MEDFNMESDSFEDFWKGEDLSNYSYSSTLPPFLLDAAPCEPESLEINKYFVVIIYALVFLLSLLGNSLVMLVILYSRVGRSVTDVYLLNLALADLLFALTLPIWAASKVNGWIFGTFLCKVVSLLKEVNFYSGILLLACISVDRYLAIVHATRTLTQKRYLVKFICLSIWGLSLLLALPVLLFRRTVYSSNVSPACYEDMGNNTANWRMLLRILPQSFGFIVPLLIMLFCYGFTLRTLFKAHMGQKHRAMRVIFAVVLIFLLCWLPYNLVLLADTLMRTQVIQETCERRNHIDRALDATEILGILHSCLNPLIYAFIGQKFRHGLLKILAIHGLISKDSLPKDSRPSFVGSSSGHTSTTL
Protocol: For each well of a 96 well plate, a reaction mixture of 2.5 μg hCXCR2-CHO overexpressing membranes (Biosignal) and 200 μg/well WGA-SPA beads (Amersham) in 160 μl was prepared in CXCR2 assay buffer (25 mM HEPES, pH 7.4, 2 mM CaCl2, 1 mM MgCl2). A 1 nM stock of ligand, [125I]-IL-8 (NEN), was prepared in the CXCR2 assay buffer. 10× stock solutions of test compounds were prepared in DMSO (Sigma). The above solutions were added to a 96-well assay plate (PerkinElmer or Corning) as follows: 20 μl test compound or DMSO, 160 μl of reaction mixture, 20 μl of ligand stock (Final [Ligand]=0.1 nM). The assay plates were shaken for 5 minutes on a plate shaker, then incubated for 12 hours before cpm/well were determined in Microbeta Trilux counter (PerkinElmer).

hCXCR1 = molecular target: T2, hCXCR1 (Homo sapiens, UniProt P25024); assay: CXCR1 SPA Assay ([125I]-IL-8 receptor binding); settings: hCXCR1-CHO overexpressing membranes, [125I]-IL-8 0.05 nM
T2 construct: purchased Biosignal; host or cells: CHO cells (membranes)
T2 sequence (P25024 1-350): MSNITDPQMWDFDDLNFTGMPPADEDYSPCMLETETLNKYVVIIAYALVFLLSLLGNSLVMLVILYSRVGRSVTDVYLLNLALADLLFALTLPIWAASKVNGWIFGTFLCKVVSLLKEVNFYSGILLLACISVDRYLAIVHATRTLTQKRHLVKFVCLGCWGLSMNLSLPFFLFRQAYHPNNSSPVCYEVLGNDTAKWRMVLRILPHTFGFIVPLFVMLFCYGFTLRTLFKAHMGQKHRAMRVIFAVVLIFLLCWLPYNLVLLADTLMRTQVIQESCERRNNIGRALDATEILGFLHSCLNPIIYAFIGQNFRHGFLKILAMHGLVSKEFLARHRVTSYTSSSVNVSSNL
Protocol: For each well of a 96 well plate, a reaction mixture of 2.2 μg hCXCR1-CHO overexpressing membranes (Biosignal) and 100 μg/well WGA-SPA beads (Amersham) in 160 μl was prepared in CXCR1 assay buffer (25 mM HEPES, pH 7.8, 2 mM CaCl2, 1 mM MgCl2, 125 mM NaCl, 0.1% BSA) (Sigma). A 0.5 nM stock of ligand, [125I]-IL-8 (NEN) was prepared in the CXCR1 assay buffer. 10× stock solutions of test compounds were prepared in 10% DMSO (Sigma). The above solutions were added to a 96-well assay plate (PerkinElmer) as follows: 20 μl test compound or DMSO, 160 μl of reaction mixture, 20 μl of ligand stock (Final [Ligand]=0.05 nM). The assay plates were shaken for 5 minutes on plate shaker, then incubated for 12 hours before cpm/well were determined in Microbeta Trilux counter (PerkinElmer). % Inhibition of Total binding-NSB (250 nM IL-8) was determined for IC50 values.

SMILES	Ki (hCXCR2)	Ki (hCXCR1)	melting point
CN(C)S(=O)(=O)c1scc(NC(=O)Nc2ccccc2Br)c1O [Example 20.1]	5 to 91 nM		
CCN(CC)S(=O)(=O)c1scc(NC(=O)Nc2cccc(Cl)c2Cl)c1O [Example 20.3]	5 to 91 nM	652 to 1920 nM	
CCNS(=O)(=O)c1scc(NC(=O)Nc2cccc(Cl)c2Cl)c1O [Example 20.7]	5 to 91 nM		
CCNS(=O)(=O)c1scc(NC(=O)Nc2ccccc2Br)c1O [Example 20.10]	5 to 91 nM		
CC(C)NS(=O)(=O)c1scc(NC(=O)Nc2cccc(Cl)c2Cl)c1O [Example 20.11]		652 to 1920 nM	
CC(C)NS(=O)(=O)c1scc(NC(=O)Nc2ccccc2Br)c1O [Example 20.12]	5 to 91 nM		
CC(C)(C)NS(=O)(=O)c1scc(NC(=O)Nc2cccc(Cl)c2Cl)c1O [Example 20.13]		652 to 1920 nM	
CN(C(C)(C)C)S(=O)(=O)c1scc(NC(=O)Nc2cccc(Cl)c2Cl)c1O [Example 20.14]		652 to 1920 nM and 652 nM	
CCN(C(C)(C)C)S(=O)(=O)c1scc(NC(=O)Nc2cccc(Cl)c2Cl)c1O [Example 20.15]	5 to 91 nM	652 to 1920 nM	
CN(C1CC1)S(=O)(=O)c1scc(NC(=O)Nc2cccc(Cl)c2Cl)c1O [Example 20.16]	5 to 91 nM and 5 to 10 nM and 6 nM	652 to 1920 nM	
CN(C1CCC1)S(=O)(=O)c1scc(NC(=O)Nc2cccc(Cl)c2Cl)c1O [Example 20.17]	5 to 91 nM		
O=C(Nc1csc(S(=O)(=O)N2CCCC2)c1O)Nc1cccc(Cl)c1Cl [Example 20.18]	5 to 91 nM	652 to 1920 nM	
O=C(Nc1ccccc1Br)Nc1csc(S(=O)(=O)N2CCCC2)c1O [Example 20.19]	5 to 91 nM	652 to 1920 nM	
NS(=O)(=O)c1scc(NC(=O)Nc2cccc(Cl)c2Cl)c1O [Example 20.21]	5 to 91 nM		
CN(C)S(=O)(=O)c1scc(NC(=O)Nc2cccc(Cl)c2Cl)c1O [Example 20]	5 to 91 nM		
CCN(C)S(=O)(=O)c1scc(NC(=O)Nc2cccc(Cl)c2Cl)c1O [Example 21]	5 to 91 nM		
CCN(C)S(=O)(=O)c1scc(NC(=S)Nc2cccc(Cl)c2Cl)c1O [Example 22]	5 to 91 nM		112 to 115 °C

Results, then the compound that gave them:

Ki (hCXCR2)	Ki (hCXCR1)	melting point	SMILES
5 to 91 nM and 5 to 10 nM			CCCN(C)S(=O)(=O)c1scc(NC(=O)Nc2cccc(Cl)c2Cl)c1O [Example 21.1]
5 to 91 nM			CCCCN(C)S(=O)(=O)c1scc(NC(=O)Nc2cccc(Cl)c2Cl)c1O [Example 21.2]
5 to 91 nM			CC(C)CN(C)S(=O)(=O)c1scc(NC(=O)Nc2cccc(Cl)c2Cl)c1O [Example 21.3]
5 to 91 nM and 5 to 10 nM			CC(C)N(C)S(=O)(=O)c1scc(NC(=O)Nc2cccc(Cl)c2Cl)c1O [Example 21.4]
5 to 91 nM	652 to 1920 nM		CCN1CCN(S(=O)(=O)c2scc(NC(=O)Nc3cccc(Cl)c3Cl)c2O)CC1 [Example 21.5]
5 to 91 nM and 5 to 10 nM	652 to 1920 nM		O=C(Nc1csc(S(=O)(=O)N2CCC[C@@H]2CO)c1O)Nc1cccc(Cl)c1Cl [Example 21.6]
5 to 91 nM and 5 to 10 nM	652 to 1920 nM		O=C(Nc1csc(S(=O)(=O)N2CCC[C@H]2CO)c1O)Nc1cccc(Cl)c1Cl [Example 21.7]
5 to 91 nM			O=C(Nc1csc(S(=O)(=O)NC2(CO)CCCC2)c1O)Nc1cccc(Cl)c1Cl [Example 21.8]
5 to 91 nM	652 to 1920 nM		O=C(Nc1csc(S(=O)(=O)NC2CC2)c1O)Nc1cccc(Cl)c1Cl [Example 21.10]
5 to 91 nM			CC(C)[C@@H](CO)NS(=O)(=O)c1scc(NC(=O)Nc2cccc(Cl)c2Cl)c1O [Example 21.12]
5 to 91 nM and 5 to 10 nM	652 to 1920 nM		CNS(=O)(=O)c1scc(NC(=O)Nc2cccc(Cl)c2Cl)c1O [Example 21.14]

From US7326729B2, “CXCR1 and CXCR2 chemokine antagonists” (Schering Corporation, priority 2004, dated 2008)
